Results as given in patent publication US20260053861A1, “CELL COMPOSITIONS AND METHODS OF USING THE SAME” (THE REGENTS OF THE UNIVERSITY OF CALIFORNIA, priority 2022, published 2026).
Counter-ions that a name gives are not always drawn. Like-named read-outs stand apart in the source and are kept apart here.

Test system: hPSC-SCs
[1] = HTS viability of hPSC-SCs in the presence of 30 mM glucose, Prestwick library, Table S4

COc1cc2c(cc1OC)-c1cc3ccc(OC)c(OC)c3c[n+]1CC2 [Palmatine chloride]
z.score.t [1]: 0.5822

CN[C@@H]1[C@H](O)[C@H](NC)[C@H]2O[C@@]3(O)C(=O)C[C@@H](C)O[C@H]3O[C@@H]2[C@H]1O [Spectinomycin dihydrochloride]
z.score.t [1]: 1.101

COC(=O)Nc1nc2ccc(Sc3ccccc3)cc2[nH]1 [Fenbendazole]
z.score.t [1]: −1.607

Cc1cc(C(=O)NNCc2ccccc2)no1 [Isocarboxazid]
z.score.t [1]: −0.9569

CCC[C@H](N[C@@H](C)C(=O)N1[C@H](C(=O)O)C[C@@H]2CCCC[C@@H]21)C(=O)OCC [Perindopril]
z.score.t [1]: 2.067

C[C@]12CC[C@@H](O)C[C@@H]1CC[C@@H]1[C@@H]2CC[C@]2(C)C(=O)CC[C@@H]12 [Androsterone]
z.score.t: −1.265

CC(C)C[C@H]1C(=O)N2CCC[C@H]2[C@]2(O)O[C@](NC(=O)[C@@H]3C=C4c5cccc6[nH]cc(c56)C[C@H]4N(C)C3)(C(C)C)C(=O)N12 [Ergocryptine-alpha]
z.score.t: 0.495

CN1[C@@H]2CC[C@H]1C[C@@H](O)C2 [Tropine]
z.score.t: −0.6133

Cc1cc(C(C)(C)C)c(O)c(C)c1CC1=NCCN1 [Oxymetazoline hydrochloride]
z.score.t [1]: −0.7524

COc1ccc(Cl)cc1C(=O)NCCc1ccc(S(=O)(=O)NC(=O)NC2CCCCC2)cc1 [Glibenclamide]
z.score.t [1]: −0.7776

CO[C@H]1C[C@H](O[C@H]2[C@H](C)[C@@H](O[C@@H]3O[C@H](C)C[C@H](N(C)C)[C@H]3OC(C)=O)[C@@H](C)C[C@@]3(CO3)C(=O)[C@H](C)[C@@H](OC(C)=O)[C@@H](C)[C@@H](C)OC(=O)[C@@H]2C)O[C@@H](C)[C@@H]1OC(C)=O [Troleandomycin]
z.score.t [1]: 1.067

COc1cc([S+](C)[O-])ccc1-c1nc2ncccc2[nH]1 (stereo not shown) [Sulmazole]
z.score.t [1]: 0.6376

Cc1cccc(CN2CCN(C(c3ccccc3)c3ccc(Cl)cc3)CC2)c1 (stereo not shown) [Meclozine dihydrochloride]
z.score.t [1]: −1.823

CCN(CC)CCOC(=O)C1(C2CCCCC2)CCCCC1 [Dicyclomine hydrochloride]
z.score.t [1]: −0.2865

NCc1ccc(S(N)(=O)=O)cc1 [Mafenide hydrochloride]
z.score.t [1]: −0.4019

CC(=O)OCC(=O)[C@@]1(O)CC[C@H]2[C@@H]3CCC4=CC(=O)CC[C@]4(C)[C@@]3(F)[C@@H](O)C[C@@]21C [Fludrocortisone acetate]
z.score.t [1]: 1.278

Cn1nnnc1SCC1=C(C(=O)O)N2C(=O)[C@@H](NC(=O)[C@H](O)c3ccccc3)[C@H]2SC1 [Cefamandole sodium salt]
z.score.t [1]: −0.7376

COC(=O)[C@H]1[C@H]2C[C@H]3c4[nH]c5ccccc5c4CCN3C[C@@H]2CC[C@@H]1O.Cl [Corynanthine hydrochloride]
z.score.t [1]: 1.095

CO[C@@H]1[C@@H](O[C@@H]2O[C@H](C)[C@@H](O[C@H]3C[C@@](C)(O)[C@@H](OC(=O)CC(C)C)[C@H](C)O3)[C@H](N(C)C)[C@H]2O)[C@@H](CC=O)C[C@@H](C)[C@@H](O)/C=C/C=C/C[C@@H](C)OC(=O)C[C@H]1OC(C)=O [Josamycin]
z.score.t [1]: −0.827

CC(C)(C)NC[C@H](O)COc1cccc2c1CCCC2=O.Cl [(−) -Levobunolol hydrochloride]
z.score.t [1]: 0.8283

CCOC(=O)n1ccn(C)c1=S [Carbimazole]
z.score.t [1]: −0.2276

C[n+]1cc2c3c(ccc2c2ccc4cc5c(cc4c21)OCO5)OCO3 [Sanguinarine]
z.score.t: −1.558

CCn1cc(C(=O)O)c(=O)c2cc(F)c(N3CCNCC3)cc21 [Norfloxacin]
z.score.t [1]: 0.3922

CCC1=C[C@@H]2CN3CCc4c([nH]c5ccccc45)[C@@](C(=O)OC)(C2)[C@@H]13 [Catharanthine]
z.score.t: 0.2625

CC1Cc2ccccc2N1NC(=O)c1ccc(Cl)c(S(N)(=O)=O)c1 (stereo not shown) [Indapamide]
z.score.t [1]: 0.02534

Cc1onc(-c2c(F)cccc2Cl)c1C(=O)N[C@@H]1C(=O)N2[C@@H]1SC(C)(C)[C@@H]2C(=O)O [Flucloxacillin sodium]
z.score.t [1]: −1.056

C[C@@H]1C[C@H]2[C@@H]3CCC4=CC(=O)C=C[C@]4(C)[C@@]3(Cl)[C@@H](O)C[C@]2(C)[C@@]1(OC(=O)c1ccco1)C(=O)CCl [Mometasone furoate]
z.score.t [1]: 0.1979

COc1cc2nc(N(C)CCCNC(=O)C3CCCO3)nc(N)c2cc1OC (stereo not shown) [Alfuzosin hydrochloride]
z.score.t [1]: −1.061

N[C@@H](Cc1cc(I)c(Oc2ccc(O)c(I)c2)c(I)c1)C(=O)O [Liothyronine]
z.score.t [1]: −1.539

Nc1nc(O)c2ncn(COC(CO)CO)c2n1 [Ganciclovir]
z.score.t [1]: −0.5992

CC(=O)[C@H]1CC[C@H]2[C@@H]3C=CC4=CC(=O)CC[C@@]4(C)[C@@H]3CC[C@]12C [Dydrogesterone]
z.score.t [1]: 0.81

O=C(NCC(O)CO)c1c(I)c(C(=O)NCC(O)CO)c(I)c(N(CCO)C(=O)CO)c1I (stereo not shown) [Ioversol]
z.score.t [1]: −0.5789

CC1(C)S[C@@H]2[C@H](NC(=O)[C@H](NC(=O)N3CCNC3=O)c3ccccc3)C(=O)N2[C@H]1C(=O)O [Azlocillin sodium salt]
z.score.t [1]: 1.635

COC(=O)C1=CCCN(C)C1 [Arecoline hydrobromide]
z.score.t: −0.7049

CC(C)(Oc1ccc(C2CC2(Cl)Cl)cc1)C(=O)O (stereo not shown) [Ciprofibrate]
z.score.t [1]: −0.2611

COc1c(O[C@@H]2O[C@H](CO)[C@@H](O)[C@H](O)[C@H]2O)cc2c(c1OC)-c1ccc(SC)c(=O)cc1[C@@H](NC(C)=O)CC2 [Thiocolchicoside]
z.score.t: 1.11

Cc1cc(=O)n(-c2ccccc2)n1C [Antipyrine]
z.score.t: −0.2131

COc1ccccc1N1CCN(CC(O)COc2cccc3ccccc23)CC1 (stereo not shown) [Naftopidil dihydrochloride]
z.score.t [1]: −0.9264

Cl.OC(CCN1CCCCC1)(c1ccccc1)C1CCCCC1 (stereo not shown) [Trihexyphenidyl-D, L Hydrochloride]
z.score.t [1]: −1.107

c1cncc([C@@H]2CCCCN2)c1 [Anabasine]
z.score.t: −0.1239

CN(C)CCN(Cc1ccc(Cl)cc1)c1ccccn1 [Chloropyramine hydrochloride]
z.score.t [1]: −0.5169

Cc1oncc1C(=O)Nc1ccc(C(F)(F)F)cc1 [Leflunomide]
z.score.t [1]: 0.9178

C=C1CC[C@H](O)C/C1=C/C=C1\CCC[C@]2(C)[C@@H]([C@H](C)CCCC(C)C)CC[C@@H]12 [Cholecalciferol]
z.score.t: 1.034

C[C@H]1NC(=O)NC1=O [Methylhydantoin-5-(D)]
z.score.t: −0.9395

CC(C)(C)C(=O)OCOC(=O)[C@@H]1N2C(=O)[C@@H](/N=C/N3CCCCCC3)[C@H]2SC1(C)C [Pivmecillinam hydrochloride]
z.score.t [1]: 0.0827

CCCC(C)(COC(N)=O)COC(=O)NC(C)C (stereo not shown) [Carisoprodol]
z.score.t: 0.425

COC(=O)C1=C(C)NC(C)=C(C(=O)OC(C)C)C1c1cccc2nonc12 (stereo not shown) [Isradipine]
z.score.t [1]: 0.6428

CCN(CC)CCCC(C)Nc1c2ccc(Cl)cc2nc2ccc(OC)cc12 (stereo not shown) [Quinacrine dihydrochloride dihydrate]
z.score.t [1]: −1.898

CC1(C)S[C@@H]2[C@H](NC(=O)[C@H](N)c3ccccc3)C(=O)N2[C@H]1C(=O)OC1OC(=O)c2ccccc21 (stereo partly shown) [Talampicillin hydrochloride]
z.score.t [1]: −0.8111

COc1ccc2c(c1)N(C[C@H](C)CN(C)C)c1ccccc1S2.O=C(O)/C=C\C(=O)O [Methotrimeprazine maleat salt]
z.score.t [1]: −1.008

NC(N)=NOCC[C@H](N)C(=O)O.O.O=S(=O)(O)O [Canavanine sulfate monohydrate (L, +)]
z.score.t: 1.095

CN1CCN(C(c2ccccc2)c2ccccc2)CC1 [Cyclizine hydrochloride]
z.score.t [1]: 0.5437

CC(=O)N(CC(O)CO)c1c(I)c(C(=O)NCC(O)CO)c(I)c(C(=O)NCC(O)CO)c1I (stereo not shown) [Iohexol]
z.score.t [1]: −0.07901

C#C[C@]1(O)CC[C@H]2[C@@H]3CCC4=CC(=O)CC[C@@H]4[C@H]3CC[C@@]21C [Norethindrone]
z.score.t [1]: 0.2479

CCOc1ccc(NC(C)=O)cc1 [Phenacetin]
z.score.t [1]: 0.8023

CC1=C(/C=C/C(C)=C/C=C/C(C)=C/C(=O)O)C(C)(C)CCC1 [Retinoic acid]
z.score.t [1]: 1.751

CNC(=C[N+](=O)[O-])NCCSCc1ccc(CN(C)C)o1 [Ranitidine hydrochloride]
z.score.t [1]: 0.4486

CC(=O)NC1[C@@H](O)OC(CO)[C@@H](O)[C@H]1O[C@H](C)C(=O)O (stereo in doubt) [Muramic acid, N-acetyl]
z.score.t [1]: 1.616

NC(N)=NCCCCN=C(N)N [Arcaine sulfate]
z.score.t [1]: −0.7567

COc1cccc2c1C(=O)c1c(O)c3c(c(O)c1C2=O)C[C@@](O)(C(C)=O)C[C@@H]3O[C@H]1C[C@H](N)[C@H](O)[C@H](C)O1 [Daunorubicin hydrochloride]
z.score.t: −1.999

CCn1cc(C(=O)O)c(=O)c2cc(F)c(N3CCNC(C)C3)c(F)c21 (stereo not shown) [Lomefloxacin hydrochloride]
z.score.t [1]: −0.9109

O=c1[nH]c2ccccc2n1CCCN1CCC(n2c(=O)[nH]c3cc(Cl)ccc32)CC1 [Domperidone]
z.score.t [1]: 0.006455

CC[N+](C)(CC)CCC[n+]1c(-c2ccccc2)c2cc(N)ccc2c2ccc(N)cc21.[I-].[I-] [Propidium iodide]
z.score.t [1]: −0.7567

COc1ccc(-c2cc(=O)c3c(O)cc(O)cc3o2)cc1 [Acacetin]
z.score.t [1]: −0.03362

Cyanocobalamin
z.score.t: 0.837

CN1CCCCC1CCN1c2ccccc2Sc2ccc([S+](C)[O-])cc21 (stereo not shown) [Mesoridazine besylate]
z.score.t [1]: 0.2816

NCC1(CC(=O)O)CCCCC1 [Gabapentin]
z.score.t: −0.496

COc1ccccc1OCC(O)CO (stereo not shown) [Guaifenesin]
z.score.t [1]: −0.3023

COc1cc2c(c(OC)c1OC)-c1ccc(OC)c(=O)cc1[C@@H](NC(C)=O)CC2 [Colchicine]
z.score.t: −1.804

[H]/N=C(\N/C(=N/[H])Nc1ccc(Cl)cc1)NC(C)C [Proguanil hydrochloride]
z.score.t [1]: −0.1187

OC(c1cc(C(F)(F)F)nc2c(C(F)(F)F)cccc12)C1CCCCN1 (stereo not shown) [Mefloquine hydrochloride]
z.score.t [1]: −1.637

Oc1c(I)cc(Cl)c2cccnc12 [Clioquinol]
z.score.t [1]: −0.2802

COc1cc2c(cc1O)C[C@H]1c3c(cc(O)c(OC)c3-2)CCN1C [Boldine]
z.score.t: 0.767
